Test results reported in patent US20250352675A1, “CA-IX TARGETING FLUORESCENT PROBES” (BRACCO IMAGING S.P.A., priority 2022, published 2025).

Tests used:
[1] = target: T1, recombinant bovine CAII enzyme (bCAII) (Bos taurus, UniProt P00921); assay: Dansylamide (DNSA) displacement fluorescence assay on carbonic anhydrase catalytic site; assay type: binding; settings: 0.25 μM bCAII, 5 μM DNSA, 20 mM Tris pH 8; triplicate; read-out: CAII receptor affinity (KD)
T1 construct: purchased Sigma-Aldrich; host or cells: E. coli
T1 sequence (P00921 whole entry): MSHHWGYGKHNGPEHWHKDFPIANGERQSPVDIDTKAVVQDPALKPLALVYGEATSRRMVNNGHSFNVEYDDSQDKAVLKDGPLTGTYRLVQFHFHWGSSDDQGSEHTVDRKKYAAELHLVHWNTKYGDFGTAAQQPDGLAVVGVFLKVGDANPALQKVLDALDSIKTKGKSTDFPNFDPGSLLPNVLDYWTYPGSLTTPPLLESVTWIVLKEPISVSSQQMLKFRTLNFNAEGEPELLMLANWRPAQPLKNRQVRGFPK
Description: The binding affinity of the compounds of formula (I) to Carbonic Anhydrase (CA) catalytic site was determined to assess the targeting efficacy of the molecular vectors, even after labeling the targeting ligand with the fluorescent portion of the probe.
Such enzyme in fact is highly available and has a catalytic site with high degree of homology in different carbonic anhydrase isoforms (Aggarwal M. et al., J Enzyme Inhib Med Chem 2013; 28(2): 267-277).
The dissociation constant (Ko) of compounds of formula (I) for bCAII was estimated by performing a fluorescence-based assay, exploiting the drop of fluorescence deriving from the displacement of carbonic anhydrase-bound dansylamide (DNSA) in presence of competitors and was adapted for application in 96-well plates from Wang S C et al., Biochem Mol Biol Educ. 2006, 34(5): 364-368. […] In both cases DNSA is excited at about 320 nm. Thus, excitation of carbonic anhydrase aromatic residues (Trp) at 285 nm generates an emission at 340 nm, that is quenched in presence of bound DNSA. The quenching occurs by FRET (fluorescence resonance energy transfer) to bound DNSA, which is in turn excited, emitting at 460 nm.
Molecules that bind to CA in the same binding site of DNSA, such as sulfonamides or derivatives, competitively displace DNSA from CA. The degree of displacement is function of the affinity of competitors and can be followed through the drop of fluorescence at 460 nm.
In detail, 5-(Dimethylamino)-1-naphthalenesulfonamide (dansylamide, DNSA, Sigma-Aldrich 218898) was reconstituted in 20 mM Tris pH 8, aliquoted and stored at −20° C.; bCAII (recombinant, expressed in E. Coli, Sigma-Aldrich) was divided in aliquots and stored at −20° C.
DNSA fluorescence emission at 462 nm from each well was recorded after excitation at 285 nm (Trp wavelength of excitation) and consequent selective excitation of DNSA bound to bCAII by FRET. Fractional saturation of bCAII was experimentally determined through normalization of fluorescence data between 1 (no compounds) and 0 (maximal DNSA displacement by presence of binding competitors), according to the equation below: […]
where r is fractional saturation, FLobs is the recorded fluorescence intensity, FLmin is the fluorescence intensity recorded at maximal concentration of compounds, and FLmax is fluorescence recorded in absence of compounds.
The KD of CA-binding compounds (=KDcomp) was then derived by mathematical fitting of experimental data according to the equation: […]
Mathematical fitting was performed using Microsoft Excel Solver.
All compounds were tested in triplicate.

HT-29 cells = assay: Time-dependent cell uptake / internalization in HT-29 cells by flow cytometry; assay type: cell-based, human; settings: 1 μM; for Slope of cell-associated fluorescence increase / total cell-associated fluorescence over time: 37° C.; for Slope of cell-associated fluorescence increase: 1-6 hours; for total cell-associated fluorescence over time: 1 to 6 hours; for % internalization (mean ± std. dev.): after 2 hours at 37° C.
Description: The HT-29 cells were used as in vitro model to assess the cell uptake of the CA-IX targeting compounds of the invention, more specifically whether cellular internalization of compounds occurred after targeting to cell-surface-expressed CA-IX. Cellular uptake was evaluated by flow cytometry. […] Treatment with unconjugated dyes were used to estimate non-specific CA-IX-independent cellular uptake. Cell incubation on ice was used to discriminate the cell-associated fluorescence deriving from internalized and cell-surface associated compounds (37° C.), from the one deriving from solely cell surface-bound compounds (on ice). Treatment of HT-29 cells, grown in 24-well plates, was performed by rinsing cells in DPBS and then by incubation with treatment solutions, for the indicated times and temperatures, in the dark. At the end of treatment, cells were rinsed 3 times with cold DPBS, and detached from the plate with StemPro® Accutase® Cell Dissociation Reagent, collected in 1.5 mL tubes after dilution in DPBS and centrifuged (5 minutes, 350 RCF, 4° C.). The supernatant was then discarded, and the cell pellet was resuspended in 300 μL of cold FACS buffer, or in a suitable volume in order to obtain no more than 1,000 recorded events per μL during FACS analysis. Samples were analyzed with the flow cytometer Accuri™ C6 (BD Biosciences) using the 640 nm excitation laser and the emission 780/60 nm filter. At least 15000 valid events were collected for each sample. At the end of analysis, each sample was plotted in histograms, being X the fluorescence intensity (FL4-A) in log scale and Y the counts. Usually, a gaussian distribution of the cell population was observed. The data retrieved were the mean fluorescence of each population, considered the fluorescence intensity value of the corresponding sample. Independent replicates were performed for each experimental condition. Normalized cell-associated fluorescence was calculated with the following formula: […]
To evaluate the time dependent uptake, the experiments were conducted from 1 to 6 hours of cell treatment with a compound concentration of 1 μM, both on ice (internalization blocked) and at 37° C. (internalization-permissive temperature) in order to differentiate cell-associated fluorescence deriving from internalized compounds from that due to cell surface-associated one. The cell surface-associated fluorescence remained roughly constant over time while the binding of the corresponding unconjugated dyes was undetectable. […] The internalization potential was calculated as percentage of internalized compounds after 2 hours of cell treatment (arbitrarily chosen) at 37° C.

[2] = Ex vivo biodistribution, organ-to-muscle ratio; assay type: in vivo, mice; settings: 1 nmol/mouse, 24 hours after administration
Description: The ex vivo biodistribution of the representative compounds 1, 2 and 3 and of the reference compound HF-1 (at 1 nmol/mouse) was evaluated in HT-29 excised tumors and tissues at the end of the in vivo OI sessions 24 hours post intravenous administration. At the end of the in vivo experiment, animals were euthanized by overdose of gaseous anesthesia followed by cervical dislocation. Tumor tissue, muscle, and other organs of interest were removed for ex vivo fluorescent signal measurements. The fluorescence signal intensity was measured by the IVIS Spectrum system. Regions of interest (ROIs) were drawn around each organ and tumor using the Living Image Software (PerkinElmer) and evaluating signal intensity in the tissues (expressed as Average Radiant Efficiency). The ratio between the fluorescence signal in the organs and tumor was then calculated to assess the contrast to hind limb muscle (representing the background).
Moreover, FIG. 6 (b) and Table VIII show the accumulation and distribution of the fluorescent probes in the dissected organs, reporting the ex vivo values of organs-to-muscle ratio from samples collected at 24 hours after the administration of representative compounds 1, 2 and 3 and of the reference compound HF-1 (1 nmol/mouse).

Compound | Kd [1] | Slope of cell-associated fluorescence increase (HT-29 cells) | total cell-associated fluorescence over time (HT-29 cells) | % internalization (mean ± std. dev.) (HT-29 cells) | Organ-to-muscle ratio, intestine [2] | Organ-to-muscle ratio, kidney [2] | Organ-to-muscle ratio, liver [2] | Organ-to-muscle ratio, skin [2] | Organ-to-muscle ratio, spleen [2] | Organ-to-muscle ratio, stomach [2]
CC1(C)C(/C=C/C=C/C=C/C=C2/N(CCCCS(=O)(=O)O)c3ccc(C(=O)NC[C@H](O)[C@@H](O)[C@H](O)[C@H](O)CO)cc3C2(C)C)=[N+](CCCCS(=O)(=O)[O-])c2ccc(C(=O)NCCCCCCCC(=O)Nc3nnc(S(N)(=O)=O)s3)cc21 [Compound 1] | 6.2 ± 0.6 nM | 1.0 | increased over time | 22.8 ± 8.2% | 1.5 ± 0.3 | 8.3 ± 1.9 | 3.3 ± 1.1 | 1.1 ± 0.2 | 0.5 ± 0.1 | 11.3 ± 3.2
CC1(C)C(/C=C/C2=C(Oc3ccc(S(=O)(=O)O)cc3)C(=C/C=C3/N(CCCCS(=O)(=O)O)c4ccc(S(=O)(=O)O)cc4C3(C)C)/CCC2)=[N+](CCCCS(=O)(=O)[O-])c2ccc(C(=O)NCCCCCCCC(=O)Nc3nnc(S(N)(=O)=O)s3)cc21 [Compound 3] | 3.8 ± 0.5 nM | 2.7 | increased over time | 49.2 ± 3.9% | 1.5 ± 0.2 | 4.7 ± 1.6 | 3.1 ± 0.6 | 1.0 ± 0.1 | 1.0 ± 0.1 | 3.5 ± 0.3
CC1(C)C(/C=C/C=C/C=C/C=C2/N(CCCCS(=O)(=O)O)c3ccc(S(=O)(=O)O)cc3C2(C)C)=[N+](CCCCS(=O)(=O)[O-])c2ccc(C(=O)NCCCCCCCC(=O)Nc3nnc(S(N)(=O)=O)s3)cc21 [Compound 2] | 3.7 ± 0.3 nM | 1.9 | increased over time | 40.8 ± 9.9% | 1.2 ± 0.1 | 4.0 ± 1.7 | 2.7 ± 0.4 | 1.6 ± 0.4 | 1.0 ± 0.1 | 7.1 ± 1.2
